The EC50 is the concentration that produces a half-maximal response. As a reminder, the inhibition in vivo is the percentage by which the read-out fell short of the control.

One data set deals with T1, GABAB receptor (Rattus norvegicus, UniProt O88871+Q9Z0U4).
T1 construct: from tissue; host or cells: rat brain cortex membranes
The experiment in a line: In vitro [35S]GTPγS binding assay in rat cortical membranes. Type of data set: biochemical. The note with it: [35S]GTPγS binding, rat cortical membranes; read-out: In vitro PAM potency (PAM EC50). As to the method: In Vitro [^35S]GTPγS Binding Assay in Rat Cortical Membranes
Cortices of freshly harvested rat brains were dissected on an ice-cold surface and homogenized by a glass Dounce homogeniser immediately in ice-cold buffer containing 50 mM Tris, 5 mM MgCl2 and 1 mM EDTA (pH=7.6). Tissue homogenates were centrifuged at 40000 g for 15 min at 4° C. Membrane pellets were resuspended in the same buffer and membranes were incubated for 10 min at 30° C. in a shaking water bath to eliminate endogenous GABA. Homogenates were centrifuged again under the same conditions. The final pellets were resuspended in ice-cold buffer (pH=7.6) containing 50 mM Tris, 100 mM NaCl, 7 mM MgCl2, 1 mM EDTA and 1 mM dithiotreithol (DTT) to yield a concentration of 20 mg tissue weight/ml and frozen at −70° C. until use. The assay was done in a buffer containing 50 mM Tris (pH=7.4), 100 mM NaCl, 7 mM MgCl2, 1 mM EDTA and 1 mM DTT. Each assay tube contained 150 μL GDP (in a final concentration of 50 μM), 100 μL ligand and 125 μL of the membrane suspension (250 μg tissue/tube). The assay tubes were preincubated for 10 min at 30° C. to assure equilibrium. Nonspecific binding was determined in the presence of 10 μM GTPγS; basal binding was determined in the presence of buffer only. After addition of […] [^35S]GTPγS in a volume of 25 μL to the tubes, membranes were incubated for an additional 60 min at 30° C. The assay was terminated by rapid filtration through Packard UniFilter GF/B using a Packard harvester and washed four times with 1 ml ice-cold buffer. After drying the filters at 40° C. for 1 h, 40 μL Microscint (Packard) was added to the filters and radioactivity of the filters was determined by a TopCount NXT (PerkinElmer, Waltham, Mass.; Alper and Nelson, Eur. J. Pharmacol. 1998, 343, 303-312; Rinken et al, Biochem. Pharmacol. 1999, 57, 155-162). Data thus gathered were used to determine PAM EC50 values for each compound as primary in vitro activity end point.
In general terms: Binding of GTPγS marks nucleotide exchange on a G protein.

Another data set concerns adult rats. The experiment in a line: Foot shock-induced ultrasonic vocalization (USV) in adult rats. Type of data set: in vivo, rat. The note with it: male Wistar rats; for inhibition in vivo at 10 mg/kg: Rattus norvegicus, po, 10 mg/kg per os, 1 h before shocking. As to the method: Foot Shock-Induced Ultrasonic Vocalization (USV) in Adult Rats
(§1) Under stressful conditions, adult rats emit 22 kHz ultrasounds that can be reduced by various pharmacological treatments (De Vry et al, Eur. J. Pharmacol. 1993, 249, 331-339; Sanchez, Eur. J. Pharmacol. 2003, 463, 133-143). […] Therefore, a foot shock-induced vocalization paradigm in adult rats was used to assess in vivo efficacy of centrally acting GABAB receptor ligands. Behavioral measurements were carried out on male Wistar rats (200-250 g, Toxicoop, Hungary). Rats were housed in groups of four in plastic cages with a wire grid top in a temperature and light-controlled laboratory animal care unit (22±2° C., 12-h light/dark cycle, lights on at 6:00 AM) with ad libitum access to commercial pellet rat food and tap water. Investigations were approved by the Local Ethical Committee of Gedeon Richter Plc. and were carried out in strict compliance with the European Directive 2010/63/EU regarding the care and use of laboratory animals for experimental procedures and all efforts were made to minimize the number of animals as well as their suffering. In order to evoke emission of ultrasounds, animals were footshocked after a habituation period of 30 s (6 shocks, 1 s, 0.8 mA each, inter-shock interval 10 s) in a sound attenuated shocking chamber (Experimetria, 40×40×80 cm). […] Vocalizations were measured right after the last footshock for 10 min with a Metris Sonotrack system and the total time of vocalizations was registered. Vocalization of parallel vehicle treated animals was considered as control value and inhibition percent was calculated for each compound. At approximately 75 min after treatment and behavioral measurements, blood and brain samples were harvested in order to determine exposures associated with in vivo activity.

The nature of data set [1]: Plasma and brain exposure after USV measurement. The data set is classed as in vivo. To be noted: rat, per os, about 75 min after treatment. As to the method:
as §1

T1 sequence (O88871 41-940): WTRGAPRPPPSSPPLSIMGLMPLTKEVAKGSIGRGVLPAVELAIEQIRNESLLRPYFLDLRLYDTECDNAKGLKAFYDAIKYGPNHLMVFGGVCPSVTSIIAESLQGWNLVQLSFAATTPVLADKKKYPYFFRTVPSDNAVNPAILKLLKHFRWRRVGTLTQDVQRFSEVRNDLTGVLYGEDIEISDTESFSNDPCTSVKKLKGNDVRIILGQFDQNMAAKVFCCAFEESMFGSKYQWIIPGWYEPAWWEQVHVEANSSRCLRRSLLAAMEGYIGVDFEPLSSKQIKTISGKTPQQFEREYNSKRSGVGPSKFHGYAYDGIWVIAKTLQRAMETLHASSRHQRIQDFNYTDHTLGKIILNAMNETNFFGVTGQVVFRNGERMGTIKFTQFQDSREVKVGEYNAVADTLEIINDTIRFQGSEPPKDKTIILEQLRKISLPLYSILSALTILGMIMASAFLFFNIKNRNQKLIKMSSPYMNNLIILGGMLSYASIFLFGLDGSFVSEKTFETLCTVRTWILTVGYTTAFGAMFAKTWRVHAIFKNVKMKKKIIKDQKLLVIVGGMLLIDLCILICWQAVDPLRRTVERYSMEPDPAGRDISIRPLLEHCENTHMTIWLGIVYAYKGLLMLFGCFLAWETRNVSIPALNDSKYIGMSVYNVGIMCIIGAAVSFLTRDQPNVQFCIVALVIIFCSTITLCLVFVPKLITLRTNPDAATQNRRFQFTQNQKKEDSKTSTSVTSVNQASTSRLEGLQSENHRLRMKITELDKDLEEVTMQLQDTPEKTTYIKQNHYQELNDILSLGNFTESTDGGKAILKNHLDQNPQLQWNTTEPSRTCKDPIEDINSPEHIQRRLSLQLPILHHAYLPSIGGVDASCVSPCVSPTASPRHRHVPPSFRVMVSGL
T1 sequence (Q9Z0U4 17-960 limits assumed): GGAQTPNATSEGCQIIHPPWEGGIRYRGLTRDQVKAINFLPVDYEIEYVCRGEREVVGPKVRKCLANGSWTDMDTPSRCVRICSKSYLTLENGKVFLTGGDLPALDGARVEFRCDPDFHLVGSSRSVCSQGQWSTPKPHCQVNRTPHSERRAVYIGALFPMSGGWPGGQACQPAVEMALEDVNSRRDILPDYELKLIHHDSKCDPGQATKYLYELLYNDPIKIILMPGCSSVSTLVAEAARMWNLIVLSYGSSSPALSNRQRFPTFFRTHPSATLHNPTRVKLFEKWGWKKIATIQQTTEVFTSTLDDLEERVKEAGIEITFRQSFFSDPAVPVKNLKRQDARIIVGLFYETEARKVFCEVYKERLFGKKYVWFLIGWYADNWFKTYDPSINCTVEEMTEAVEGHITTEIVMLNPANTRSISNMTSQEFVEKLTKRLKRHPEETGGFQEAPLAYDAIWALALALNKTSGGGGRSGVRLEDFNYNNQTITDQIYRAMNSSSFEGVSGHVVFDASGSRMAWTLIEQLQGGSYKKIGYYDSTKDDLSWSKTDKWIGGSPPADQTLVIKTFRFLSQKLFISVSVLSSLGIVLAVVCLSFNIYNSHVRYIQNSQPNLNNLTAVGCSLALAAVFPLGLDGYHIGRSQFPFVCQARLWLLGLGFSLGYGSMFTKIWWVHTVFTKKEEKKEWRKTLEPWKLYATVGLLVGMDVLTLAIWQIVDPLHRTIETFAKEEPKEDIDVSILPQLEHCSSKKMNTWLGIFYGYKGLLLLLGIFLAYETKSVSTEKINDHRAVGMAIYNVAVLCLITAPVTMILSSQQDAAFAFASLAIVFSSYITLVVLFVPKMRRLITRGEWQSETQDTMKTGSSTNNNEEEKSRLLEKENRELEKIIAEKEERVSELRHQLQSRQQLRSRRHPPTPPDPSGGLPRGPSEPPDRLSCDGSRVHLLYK

`Cc1nc2cc(-c3ccc(C(F)(F)F)cc3)nn2c(N2CCC[C@@](C(=O)O)(C(C)C)C2)c1C(C)C` [Example 28]: the half-maximal effective concentration (EC50) at GABAB receptor is 10 to 100 nM. In addition, the inhibition in vivo at 10 mg/kg with adult rats stood at 35%. Besides, in data set [1] (formulation Tween), the “Brain exposure at 1 mg/kg” value amounted to 184 ng/g and the “Plasma exposure at 1 mg/kg” value turned out to be 222 ng/mL.
For `Cc1nc2cc(-c3ccc(C(F)(F)F)c(F)c3)nn2c(N2CCC[C@@](C(=O)O)(C(C)C)C2)c1C(C)C` [Example 58], the EC50 on GABAB receptor was in the range of 10 to 100 nM.
Regarding `Cc1nc2cc(-c3ccc(C(F)(F)F)cc3Cl)nn2c(N2CCC[C@](C)(C(=O)O)C2)c1C(C)C` [Example 13, (3S)-1-{2-[2-Chloro-4-(trifluoromethyl)phenyl]-5-methyl-6-(propan-2-yl)pyrazolo[1,5-a]pyrimidin-7-yl}-3-methylpiperidine-3-carboxylic acid], the 50% effective concentration (EC50) on GABAB receptor lay in the range of 1 to 10 nM. In addition, in the data set on adult rats, the inhibition in vivo at 10 mg/kg worked out at 90%. In addition, in data set [1] (formulation Tween), the “Brain exposure at 1 mg/kg” value is given as 424 ng/g and the “Plasma exposure at 1 mg/kg” value came to 843 ng/mL.
Take `Cc1nc2cc(-c3ccc(C(F)(F)F)cc3F)nn2c(N2CCC[C@@](C(=O)O)(C(C)C)C2)c1C(C)C` [Example 11, (3R)-1-{2-[2-Fluoro-4-(trifluoromethyl)phenyl]-5-methyl-6-(propan-2-yl)pyrazolo[1,5-a]pyrimidin-7-yl}-3-(propan-2-yl)piperidine-3-carboxylic acid]: the EC50 on GABAB receptor lay in the range of 1 to 10 nM. Also, the inhibition in vivo at 10 mg/kg with adult rats was 15%. In addition, in data set [1] (formulation Tween), the “Brain exposure at 1 mg/kg” value is listed as 165 ng/g and the “Plasma exposure at 1 mg/kg” value amounted to 326 ng/mL.
As for `Cc1nc2cc(-c3ccc(C(F)(F)F)cc3)nn2c(N2CCC[C@](C)(C(=O)O)C2)c1C(C)C` [Example 12, (3S)-3-Methyl-1-[5-methyl-6-(propan-2-yl)-2-[4-(trifluoromethyl)phenyl]pyrazolo[1,5-a]pyrimidin-7-yl]piperidine-3-carboxylic acid], at GABAB receptor, the EC50 lay within 1 to 10 nM. Further, testing at 10 mg/kg in the data set on adult rats gave an inhibition in vivo of 63%. Moreover, in data set [1] (formulation Tween), the “Brain exposure at 1 mg/kg” value is on record as 218 ng/g and the “Plasma exposure at 1 mg/kg” value came to 283 ng/mL.
On to `CCC1(C(=O)O)CCCN(c2c(C(C)C)c(C)nc3cc(-c4ccc(Cl)cc4)nn23)C1` (centres unmarked) [Example 20], for which the concentration for a half-maximal effect (EC50) at GABAB receptor lay within 10 to 100 nM. In addition, in data set [1] (formulation SpD1), the “Brain exposure at 1 mg/kg” value is 1093 ng/g and the “Plasma exposure at 1 mg/kg” value was found to be 1275 ng/mL.
On to `Cc1nc2cc(-c3ccc(Cl)cc3)nn2c(N2CCC[C@](C(=O)O)(C(C)C)C2)c1C(C)C` [Example 9, (3S)-1-[2-(4-Chlorophenyl)-5-methyl-6-(propan-2-yl)pyrazolo[1,5-a]pyrimidin-7-yl]-3-(propan-2-yl)piperidine-3-carboxylic acid], for which, on GABAB receptor, the EC50 lay within 10 to 100 nM. The same compound showed an inhibition in vivo at 10 mg/kg in the data set with adult rats of 39%. Besides, in data set [1] (formulation SpD1), the “Brain exposure at 1 mg/kg” value stood at 1849 ng/g and the “Plasma exposure at 1 mg/kg” value stood at 1807 ng/mL.
As to `CC[C@]1(C(=O)O)CCCN(c2c(C(C)C)c(C)nc3cc(-c4ccc(C(F)(F)F)cc4F)nn23)C1` [Example 7, (3S)-3-Ethyl-1-{2-[2-fluoro-4-(trifluoromethyl)phenyl]-5-methyl-6-(propan-2-yl)pyrazolo[1,5-a]pyrimidin-7-yl}piperidine-3-carboxylic acid], the EC50 at GABAB receptor lay within 1 to 10 nM. Also, at 10 mg/kg the inhibition in vivo in the data set on adult rats was 90%. Moreover, in data set [1] (formulation Tween), the “Brain exposure at 1 mg/kg” value was 332 ng/g and the “Plasma exposure at 1 mg/kg” value stood at 506 ng/mL.
For `Cc1nc2c(F)c(-c3ccc(Cl)cc3)nn2c(N2CCCC(C(=O)O)C2)c1C(C)C` (centres unmarked) [Example 70], the inhibition in vivo at 10 mg/kg in the data set on adult rats came to 71%.
Take `CC[C@@]1(C(=O)O)CCCN(c2c(C(C)C)c(C)nc3cc(-c4ccc(C(F)(F)F)cc4F)nn23)C1` [Example 8, (3R)-3-Ethyl-1-{2-[2-fluoro-4-(trifluoromethyl)phenyl]-5-methyl-6-(propan-2-yl)pyrazolo[1,5-a]pyrimidin-7-yl}piperidine-3-carboxylic acid]: in the data set on adult rats, the inhibition in vivo at 10 mg/kg came to 60%. In data set [1] (formulation Tween), the “Brain exposure at 1 mg/kg” value worked out at 1193 ng/g and the “Plasma exposure at 1 mg/kg” value turned out to be 298 ng/mL.
Take `COCC1(C(=O)O)CCCN(c2c(C(C)C)c(C)nc3cc(-c4ccc(C(F)(F)F)cc4F)nn23)C1` (centres unmarked) [Example 17, 1-{2-[2-Fluoro-4-(trifluoromethyl)phenyl]-5-methyl-6-(propan-2-yl)pyrazolo[1,5-a]pyrimidin-7-yl}-3-(methoxymethyl)piperidine-3-carboxylic acid]: on GABAB receptor, the EC50 is 1 to 10 nM. In the data set on adult rats, the inhibition in vivo at 10 mg/kg was 44%. In data set [1] (formulation Tween), the “Brain exposure at 1 mg/kg” value is on record as 144 ng/g and the “Plasma exposure at 1 mg/kg” value is given as 443 ng/mL.
Regarding `CC[C@]1(C(=O)O)CCCN(c2c(C(C)C)c(C)nc3cc(-c4ccc(C(F)(F)F)cc4)nn23)C1` [Example 6, (3S)-3-Ethyl-1-[5-methyl-6-(propan-2-yl)-2-[4-(trifluoromethyl)phenyl]pyrazolo[1,5-a]pyrimidin-7-yl]piperidine-3-carboxylic acid], the EC50 at GABAB receptor lay within 10 to 100 nM. Further, the inhibition in vivo at 10 mg/kg in the data set with adult rats is 90%. Moreover, in data set [1] (formulation Tween), the “Brain exposure at 1 mg/kg” value turned out to be 1326 ng/g and the “Plasma exposure at 1 mg/kg” value is 1453 ng/mL.
Consider `Cc1nc2cc(-c3ccc(C(F)(F)F)cc3)nn2c(N2CCC[C@](C(=O)O)(C(C)C)C2)c1C(C)C` [Example 10, (3S)-1-[5-Methyl-6-(propan-2-yl)-2-[4-(trifluoromethyl)phenyl]pyrazolo[1,5-a]pyrimidin-7-yl]-3-(propan-2-yl)piperidine-3-carboxylic acid], for which, on GABAB receptor, the EC50 lay in the range of 1 to 10 nM. Besides, in the data set on adult rats, the inhibition in vivo at 10 mg/kg was determined as 30%. Moreover, in data set [1] (formulation Tween), the “Brain exposure at 1 mg/kg” value came to 150 ng/g and the “Plasma exposure at 1 mg/kg” value is given as 36 ng/mL.
As to `CC[C@@]1(C(=O)O)CCCN(c2c(C(C)C)c(C)nc3cc(-c4ccc(Cl)cc4)nn23)C1` [Example 21], the EC50 at GABAB receptor lay within 10 to 100 nM.
Regarding `Cc1nc2cc(-c3ccc(Cl)cc3)nn2c(N2CCCC(C(=O)O)(C(C)C)C2)c1C(C)C` (centres unmarked) [Example 3, 1-[2-(4-Chlorophenyl)-5-methyl-6-(propan-2-yl)pyrazolo[1,5-a]pyrimidin-7-yl]-3-(propan-2-yl)piperidine-3-carboxylic acid], the EC50 on GABAB receptor lay in the range of 10 to 100 nM. The compound further registered an inhibition in vivo at 10 mg/kg in the data set with adult rats of 58%. Also, in data set [1] (formulation Tween), the “Brain exposure at 1 mg/kg” value came out at 395 ng/g and the “Plasma exposure at 1 mg/kg” value is recorded as 358 ng/mL.
`Cc1nc2c(F)c(-c3ccc(C(F)(F)F)cc3)nn2c(N2CCC[C@](C)(C(=O)O)C2)c1C(C)C` [Example 84]: at GABAB receptor, the EC50 fell in the range of 1 to 10 nM. Also, in the data set with adult rats (at 3 mg/kg, per os), the “USV inhibition (%)” value was 42 (at 3 mg/kg) %. Moreover, in data set [1] (formulation Tween), the “Brain exposure at 1 mg/kg” value is listed as 85 ng/g and the “Plasma exposure at 1 mg/kg” value was 113 ng/mL.
As to `COCC1(C(=O)O)CCCN(c2c(C(C)C)c(C)nc3cc(-c4ccc(C(F)(F)F)cc4)nn23)C1` (centres unmarked) [Example 16], the EC50 on GABAB receptor is 10 to 100 nM. Also, the inhibition in vivo at 10 mg/kg in the data set with adult rats worked out at 41%. Further, in data set [1] (formulation Tween), the “Brain exposure at 1 mg/kg” value is given as 28 ng/g and the “Plasma exposure at 1 mg/kg” value worked out at 103 ng/mL.
Turning to `Cc1nc2cc(-c3ccc(Cl)cc3)nn2c(N2CCC[C@@](C(=O)O)(C(C)C)C2)c1C(C)C` [Example 22], the EC50 on GABAB receptor is 10 to 100 nM.
For `Cc1nc2cc(-c3ccc(Cl)cc3Cl)nn2c(N2CCC[C@](C(=O)O)(C(C)C)C2)c1C(C)C` [Example 45], on GABAB receptor, the concentration for a half-maximal effect (EC50) lay within 10 to 100 nM.
